According to patent publication US20170290806A1, “PCSK9 Inhibitors and Methods of Use Thereof” (Temple University-Of The Commonwealth System of Higher …, priority 2014, published 2017):
“Also recorded” adds a separate entry of the source.

Assays:
PCSK9/LDLR interaction [1] = target: T1, PCSK9/LDLR interaction (Homo sapiens, UniProt Q8NBP7); test: Recombinant cell based assay: LDLR upregulation in HEK293 cells transfected with LDLR and PCSK9; set-up: the human full-length PCSK9 was cloned; expressed in transfected cells; host or cells: HEK-293T; details: for increase in the LDLR (intracellular recombinant LDLR upregulation) as comparable to control / EC50: HEK293 cells transfected with LDLR and PCSK9; for increase in the LDLR (intracellular recombinant LDLR upregulation) as comparable to control: compounds 1-50 μM; for EC50: compounds 1-50 uM, 43 hours incubation, read-out: EC50 of LDLR up-regulation; for IC50s (increase in the LDLR): PCSK9/LDLR HEK293 recombinant cell based assay
Protocol: HEK-293T cells were seeded into 96 well plates in a DMEM containing 10% Fetal Bovine Serum media and incubated overnight at 37° C. Cells were transiently transfected with LDLR and PCSK9 cDNA constructs using the Lipofectamine-LTX. Compounds (1-50 uM) were added, followed by additional 43 hours of incubation. The cells were lysed and analyzed for LDLR expression and cell viability determined as described in FIG. 7.
HEK-293T cells were seeded into 96 well plates in a DMEM containing 10% Fetal Bovine Serum media and incubated overnight at 37° C. Cells were transiently transfected with LDLR and PCSK9 cDNA constructs using the Lipofectamine-LTX. Compounds (1-50 uM) were added, followed by additional 43 hours of incubation. The cells were lysed and analyzed for LDLR expression and cell viability determined as described in FIG. 8. […] Compound SBC-130,022 has no effect in up-regulating LDLR.
(§1) Considering the difficulty in assaying the LDLR/PCSK9 binding, the approach was to develop and implement an innovative recombinant cell based assay where the full-length PCSK9 and the LDLR genes are expressed into HEK-293 cells, and allowed to decrease the LDLR level by PCSK9 (FIG. 7). Compounds that prevent the LDLR degradation without preventing the auto-processing and secretion of the PCSK9 were selected as potential candidates and were further evaluated using additional cell based assay using endogenously expressed LDLR in liver cells (HepG2 cells).
Preparation of constructs: the human full-length PCSK9 was cloned. The cDNA encoding the PCSK9 sequence with and without a FLAG epitope tag (DYKDDDDK) were cloned by PCR and subcloned into mammalian expression vector containing the cytomegalovirus promoter-enhancer (pCMV-PCSK9-FLAG) (pCDNA3.1/PCSK9). For LDLR, the coding sequence was constructed without tag in mammalian expression vector (pCMV-LDLR) (pCDNA3.1/LDLR). The constructs were confirmed by sequence analysis
The pCDNA3.1/PCSK9, and the pCDNA3.1/LDLR constructs were used to transiently transfect mammalian cells. The human embryonic kidney (HEK)-293 cells were seeded (1×10^5 cells/well) in 24-well plates. Expression plasmids ([…]) were transiently transfected into HEK-293 cells with lipofectamine (Invitrogen) according to the manufacturer's protocol. Twenty four to forty eight hours after transfection, cells were harvested. The cells were then be lysed. Both cell lysate and supernatant were subjected to SDS-PAGE and immunoblot analysis using an anti-PCSK9 or LDLR antibody.
240 compounds identified from the virtual screen in a cell based assay for their potential to upregulate the LDLR in the presence of PCSK9 were tested as described above. Initial screening was done using 50 μM of the compounds. Each compound was added to the cell media in triplicates, and intrecellar LDLR was detected as described above. Each set of compounds were screened at least twice with all appropriate controls. Compounds that upregulate the LDLR were selected for further evaluation.
From the initial screening, 24 compounds were identified as potential hits. Hits confirmation was repeated in triplicates using 50 μM.

PCSK9/LDLR interaction [2] = target: T1, PCSK9/LDLR interaction; test: LDLR upregulation in HepG2 cells; assay type: cell-based; set-up: the human full-length PCSK9 was cloned; expressed in transfected cells; details: for up-regulation of endogenously expressed LDLR: compounds 1-50 uM; for EC50: endogenously expressed LDLR, transfected with PCSK9, compounds 1-50 uM, 43 hours, read-out: EC50 of up-regulation of LDLR
Protocol: HepG2 cells were seeded into 96 well plates in a MEM containing 10% Fetal Bovine Serum media and incubated overnight at 37° C. Cells were transiently transfected with PCSK9 cDNA constructs using the Lipofectamine-LTX. Compounds (1-50 uM) were added, followed by additional 43 hours of incubation. The cells were lysed and analyzed for LDLR expression and cell viability determined as described in FIG. 8.
as §1
The compounds SBC-110,424, SBC-110, 433, and SBC-115,076 were also validated for their ability to up-regulate the endogenously expressed LDLR in HepG2 cells.

T1 sequence (Q8NBP7 153-692): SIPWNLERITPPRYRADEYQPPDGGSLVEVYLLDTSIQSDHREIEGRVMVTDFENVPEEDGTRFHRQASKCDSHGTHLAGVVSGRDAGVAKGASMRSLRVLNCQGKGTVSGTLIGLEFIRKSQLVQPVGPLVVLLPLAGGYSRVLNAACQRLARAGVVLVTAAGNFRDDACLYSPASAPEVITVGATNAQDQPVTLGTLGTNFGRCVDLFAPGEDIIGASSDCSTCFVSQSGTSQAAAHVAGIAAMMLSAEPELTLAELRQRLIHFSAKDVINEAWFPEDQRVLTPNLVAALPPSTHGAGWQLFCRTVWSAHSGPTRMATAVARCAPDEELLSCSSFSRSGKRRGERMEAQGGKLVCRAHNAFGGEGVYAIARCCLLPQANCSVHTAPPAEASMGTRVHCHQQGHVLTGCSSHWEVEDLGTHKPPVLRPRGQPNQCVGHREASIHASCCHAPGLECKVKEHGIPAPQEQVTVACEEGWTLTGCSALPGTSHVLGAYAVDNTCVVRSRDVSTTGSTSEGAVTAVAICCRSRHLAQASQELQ
T1 sequence (Q8NBP7 31-152 partner limits assumed): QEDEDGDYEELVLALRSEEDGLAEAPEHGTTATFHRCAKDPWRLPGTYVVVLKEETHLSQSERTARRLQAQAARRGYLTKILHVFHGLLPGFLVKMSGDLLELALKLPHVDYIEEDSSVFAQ

Row | SMILES | increase in the LDLR (intracellular recombinant LDLR upregulation) as comparable to control (PCSK9/LDLR interaction [1]) | EC50 (PCSK9/LDLR interaction [1]) [µM] | IC50s (increase in the LDLR) (PCSK9/LDLR interaction [1]) | up-regulation of endogenously expressed LDLR (PCSK9/LDLR interaction [2]) | EC50 (PCSK9/LDLR interaction [2]) [nM]
1 | CC(C)(C(=O)NCc1ccco1)n1cc(NC(=O)c2cccnc2)cn1 [SBC-110,424] | concentration dependent increase; also recorded: significant potency | 3.5 | low uM range | concentration dependent up-regulation | 2000
2 | Cc1cc(C(=O)C2=C(O)C(=O)N(CCCN3CCOCC3)C2c2ccncc2)ccc1OCc1ccccc1 (stereo not shown) [SBC-115,076] | concentration dependent increase | 3.1 | low uM range | concentration dependent up-regulation | 430
